ChEMBL document CHEMBL5465560, “Selectivity Literature for EUbOPEN Chemogenomic Library” (2024)

How the values were obtained:
[1] = molecular target: Serine/threonine-protein kinase pim-1 (Homo sapiens, UniProt P11309); assay: Selectivity interaction (KinomeScan (DiscoverX)) EUB0000229b PIM1; settings: at 10 µM
[2] = system: Phosphatidylinositol 4,5-bisphosphate 3-kinase catalytic subunit alpha isoform (Homo sapiens), P42336 [Q546K]; settings: at 10 µM
[3] = molecular target: NT-3 growth factor receptor (Homo sapiens, UniProt Q16288); settings: at 10 µM
[4] = molecular target: Cyclin-dependent kinase 11A (Homo sapiens, UniProt Q9UQ88); assay: Selectivity interaction (Kinase panel (Invitrogen, enzymatic assay)) EUB0000162b CDK11A
Sequence of Cyclin-dependent kinase 11A (Q9UQ88 whole entry): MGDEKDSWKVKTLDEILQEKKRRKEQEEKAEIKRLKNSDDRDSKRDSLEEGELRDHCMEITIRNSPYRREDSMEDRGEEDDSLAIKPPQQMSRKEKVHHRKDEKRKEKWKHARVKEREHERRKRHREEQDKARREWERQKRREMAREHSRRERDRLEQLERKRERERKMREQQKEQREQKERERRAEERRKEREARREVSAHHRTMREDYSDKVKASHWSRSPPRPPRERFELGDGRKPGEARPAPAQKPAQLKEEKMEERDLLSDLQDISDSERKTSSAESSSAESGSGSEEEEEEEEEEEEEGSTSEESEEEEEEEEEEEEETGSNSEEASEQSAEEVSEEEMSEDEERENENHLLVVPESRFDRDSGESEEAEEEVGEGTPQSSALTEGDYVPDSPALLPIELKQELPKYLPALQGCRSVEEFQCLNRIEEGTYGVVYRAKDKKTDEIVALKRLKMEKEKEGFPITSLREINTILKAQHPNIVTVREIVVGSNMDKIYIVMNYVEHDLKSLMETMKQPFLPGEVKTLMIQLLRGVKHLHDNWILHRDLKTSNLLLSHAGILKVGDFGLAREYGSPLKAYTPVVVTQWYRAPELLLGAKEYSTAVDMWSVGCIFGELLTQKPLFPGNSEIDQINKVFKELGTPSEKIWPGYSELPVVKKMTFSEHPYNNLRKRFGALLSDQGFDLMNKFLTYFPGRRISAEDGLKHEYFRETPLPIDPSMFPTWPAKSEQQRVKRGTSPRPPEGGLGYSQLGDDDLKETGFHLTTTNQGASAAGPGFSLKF

[5] = molecular target: T1, Serine/threonine-protein kinase tousled-like 1 (Homo sapiens) (UniProt Q9UKI8); assay: Selectivity interaction (KinomeScan (DiscoverX)) EUB0001619a TLK1; settings: at 1 µM
T1 sequence (whole entry): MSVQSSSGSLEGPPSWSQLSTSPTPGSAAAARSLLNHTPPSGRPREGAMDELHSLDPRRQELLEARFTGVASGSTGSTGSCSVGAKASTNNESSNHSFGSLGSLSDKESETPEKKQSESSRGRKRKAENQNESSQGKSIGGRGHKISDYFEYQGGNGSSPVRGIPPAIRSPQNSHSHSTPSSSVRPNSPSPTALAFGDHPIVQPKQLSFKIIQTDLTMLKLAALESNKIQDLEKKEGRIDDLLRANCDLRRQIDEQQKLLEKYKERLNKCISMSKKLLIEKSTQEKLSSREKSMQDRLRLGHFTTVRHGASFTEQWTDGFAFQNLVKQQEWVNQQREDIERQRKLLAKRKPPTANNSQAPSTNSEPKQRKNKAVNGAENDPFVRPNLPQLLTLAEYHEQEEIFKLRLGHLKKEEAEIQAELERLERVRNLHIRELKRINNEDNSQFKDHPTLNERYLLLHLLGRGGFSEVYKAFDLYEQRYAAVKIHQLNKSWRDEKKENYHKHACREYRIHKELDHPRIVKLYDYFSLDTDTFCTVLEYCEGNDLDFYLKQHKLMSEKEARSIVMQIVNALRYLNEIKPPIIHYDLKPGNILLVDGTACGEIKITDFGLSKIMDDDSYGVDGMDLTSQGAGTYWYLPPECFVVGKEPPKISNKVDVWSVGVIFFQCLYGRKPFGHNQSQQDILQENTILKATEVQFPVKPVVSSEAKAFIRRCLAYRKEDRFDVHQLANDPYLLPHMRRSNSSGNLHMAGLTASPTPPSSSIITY

[6] = molecular target: LIM domain kinase 2 (Homo sapiens) (UniProt P53671); assay: Selectivity interaction (KinomeScan (DiscoverX)) EUB0000607a LIMK2; settings: at 10 µM
[7] = molecular target: Macrophage colony-stimulating factor 1 receptor (Homo sapiens) (UniProt P07333); assay: Selectivity interaction (KinomeScan (DiscoverX)) EUB0000607a CSF1R; settings: at 10 µM
Sequence of Macrophage colony-stimulating factor 1 receptor (Homo sapiens) (P07333 whole entry): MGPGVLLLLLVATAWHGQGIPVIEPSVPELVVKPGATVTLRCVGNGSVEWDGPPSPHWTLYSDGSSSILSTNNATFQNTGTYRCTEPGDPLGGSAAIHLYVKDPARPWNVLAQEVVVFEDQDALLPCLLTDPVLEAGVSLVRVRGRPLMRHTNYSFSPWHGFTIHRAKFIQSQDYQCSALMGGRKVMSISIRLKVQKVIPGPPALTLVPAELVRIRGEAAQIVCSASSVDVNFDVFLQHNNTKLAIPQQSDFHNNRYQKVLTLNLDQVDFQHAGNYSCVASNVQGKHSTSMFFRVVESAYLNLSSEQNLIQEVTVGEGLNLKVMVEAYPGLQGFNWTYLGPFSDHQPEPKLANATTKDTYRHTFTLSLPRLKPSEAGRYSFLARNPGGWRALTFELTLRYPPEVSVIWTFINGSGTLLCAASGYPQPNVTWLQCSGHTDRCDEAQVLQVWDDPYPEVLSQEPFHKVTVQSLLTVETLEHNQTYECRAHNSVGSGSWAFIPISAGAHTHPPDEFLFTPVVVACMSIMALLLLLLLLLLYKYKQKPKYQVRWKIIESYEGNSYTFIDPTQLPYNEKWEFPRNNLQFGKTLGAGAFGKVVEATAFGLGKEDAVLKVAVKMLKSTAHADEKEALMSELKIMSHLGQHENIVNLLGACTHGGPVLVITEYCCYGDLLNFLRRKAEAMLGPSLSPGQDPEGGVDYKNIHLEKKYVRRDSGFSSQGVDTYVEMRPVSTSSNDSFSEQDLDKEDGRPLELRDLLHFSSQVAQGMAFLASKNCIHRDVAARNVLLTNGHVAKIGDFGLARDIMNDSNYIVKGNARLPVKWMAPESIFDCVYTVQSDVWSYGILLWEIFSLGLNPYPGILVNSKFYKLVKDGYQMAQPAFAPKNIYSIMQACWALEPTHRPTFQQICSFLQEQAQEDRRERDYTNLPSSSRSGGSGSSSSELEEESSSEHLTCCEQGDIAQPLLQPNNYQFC

[8] = molecular target: Dual specificity testis-specific protein kinase 1 (Homo sapiens) (UniProt Q15569); assay: Selectivity interaction (KinomeScan (DiscoverX)) EUB0000607a TESK1; settings: at 10 µM
Sequence of Dual specificity testis-specific protein kinase 1 (Homo sapiens) (Q15569 whole entry, looked up): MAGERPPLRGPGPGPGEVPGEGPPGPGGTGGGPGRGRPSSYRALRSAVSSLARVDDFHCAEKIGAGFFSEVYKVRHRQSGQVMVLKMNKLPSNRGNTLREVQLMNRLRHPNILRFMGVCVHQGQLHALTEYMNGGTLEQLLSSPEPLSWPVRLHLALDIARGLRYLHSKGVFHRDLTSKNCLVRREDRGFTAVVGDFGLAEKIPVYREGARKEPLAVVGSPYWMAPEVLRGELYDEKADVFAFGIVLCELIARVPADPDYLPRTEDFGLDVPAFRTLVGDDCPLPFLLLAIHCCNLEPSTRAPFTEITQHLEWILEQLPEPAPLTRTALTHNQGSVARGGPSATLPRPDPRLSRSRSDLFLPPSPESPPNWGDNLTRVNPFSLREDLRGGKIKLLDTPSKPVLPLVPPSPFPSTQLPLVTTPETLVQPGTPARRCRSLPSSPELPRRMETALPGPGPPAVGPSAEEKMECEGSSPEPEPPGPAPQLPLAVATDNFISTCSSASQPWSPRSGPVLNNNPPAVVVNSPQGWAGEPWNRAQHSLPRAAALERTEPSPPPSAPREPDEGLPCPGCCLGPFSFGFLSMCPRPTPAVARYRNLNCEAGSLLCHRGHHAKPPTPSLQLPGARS

[9] = molecular target: T2, Inhibitor of nuclear factor kappa-B kinase subunit alpha (Homo sapiens) (UniProt O15111); assay: Selectivity interaction (KinomeScan (DiscoverX)) EUB0000618a CHUK; settings: at 10 µM
T2 sequence (whole entry): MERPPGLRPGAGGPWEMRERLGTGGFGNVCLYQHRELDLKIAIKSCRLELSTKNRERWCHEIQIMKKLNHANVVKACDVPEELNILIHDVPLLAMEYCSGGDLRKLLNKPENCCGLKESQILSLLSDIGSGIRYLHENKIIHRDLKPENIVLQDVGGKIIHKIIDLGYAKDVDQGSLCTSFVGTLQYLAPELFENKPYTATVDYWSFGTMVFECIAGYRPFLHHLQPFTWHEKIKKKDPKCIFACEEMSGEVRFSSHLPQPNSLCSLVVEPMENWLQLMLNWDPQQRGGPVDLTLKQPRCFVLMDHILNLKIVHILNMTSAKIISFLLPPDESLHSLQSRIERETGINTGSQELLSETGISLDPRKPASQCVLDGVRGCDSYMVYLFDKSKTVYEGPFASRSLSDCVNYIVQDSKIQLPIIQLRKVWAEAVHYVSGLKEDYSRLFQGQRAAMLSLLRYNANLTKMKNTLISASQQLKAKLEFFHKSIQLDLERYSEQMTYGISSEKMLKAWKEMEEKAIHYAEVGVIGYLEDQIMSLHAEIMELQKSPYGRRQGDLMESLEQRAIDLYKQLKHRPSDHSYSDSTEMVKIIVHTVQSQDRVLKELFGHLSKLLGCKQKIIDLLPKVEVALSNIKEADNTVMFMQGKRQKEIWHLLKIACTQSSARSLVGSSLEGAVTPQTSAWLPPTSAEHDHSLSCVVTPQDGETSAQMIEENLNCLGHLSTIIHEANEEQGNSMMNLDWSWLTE

[10] = molecular target: Bone morphogenetic protein receptor type-1A (Homo sapiens, UniProt P36894); assay: Selectivity interaction (Kinase panel (Invitrogen)) EUB0000639a BMPR1A; settings: at 200 nM
Sequence of Bone morphogenetic protein receptor type-1A (P36894 whole entry): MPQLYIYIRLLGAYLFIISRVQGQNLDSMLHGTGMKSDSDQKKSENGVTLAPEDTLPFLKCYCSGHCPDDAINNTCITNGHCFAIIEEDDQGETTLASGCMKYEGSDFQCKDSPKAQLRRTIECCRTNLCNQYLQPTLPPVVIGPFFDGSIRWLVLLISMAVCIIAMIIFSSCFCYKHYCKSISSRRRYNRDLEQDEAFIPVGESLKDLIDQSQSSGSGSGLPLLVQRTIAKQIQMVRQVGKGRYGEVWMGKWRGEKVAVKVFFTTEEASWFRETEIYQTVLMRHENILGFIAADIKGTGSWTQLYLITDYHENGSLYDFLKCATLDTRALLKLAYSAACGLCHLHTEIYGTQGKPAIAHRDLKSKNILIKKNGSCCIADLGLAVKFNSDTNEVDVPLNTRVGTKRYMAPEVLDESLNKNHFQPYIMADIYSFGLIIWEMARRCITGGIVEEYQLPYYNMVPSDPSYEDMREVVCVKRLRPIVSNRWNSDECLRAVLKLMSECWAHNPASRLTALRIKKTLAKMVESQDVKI

[11] = molecular target: T3, Serine/threonine-protein kinase Sgk3 (Homo sapiens) (UniProt Q96BR1); assay: Selectivity interaction (KinomeScan (DiscoverX)) EUB0000655a SGK3; settings: at 10 µM
T3 sequence (whole entry): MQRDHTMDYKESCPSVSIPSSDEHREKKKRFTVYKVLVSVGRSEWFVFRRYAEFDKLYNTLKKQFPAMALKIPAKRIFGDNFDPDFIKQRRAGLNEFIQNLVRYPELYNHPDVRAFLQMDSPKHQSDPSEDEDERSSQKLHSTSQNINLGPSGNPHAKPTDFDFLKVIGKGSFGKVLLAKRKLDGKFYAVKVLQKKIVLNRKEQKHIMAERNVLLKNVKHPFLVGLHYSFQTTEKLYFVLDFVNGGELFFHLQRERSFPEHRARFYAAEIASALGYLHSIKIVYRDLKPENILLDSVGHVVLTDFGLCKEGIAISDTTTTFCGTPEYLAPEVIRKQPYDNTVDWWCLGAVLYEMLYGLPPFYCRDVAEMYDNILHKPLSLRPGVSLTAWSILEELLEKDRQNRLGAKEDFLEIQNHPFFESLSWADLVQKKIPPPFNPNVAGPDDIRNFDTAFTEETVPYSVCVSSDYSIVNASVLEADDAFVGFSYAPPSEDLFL

[12] = molecular target: RAF proto-oncogene serine/threonine-protein kinase (Homo sapiens) (UniProt P04049); settings: at 10 µM
Sequence of RAF proto-oncogene serine/threonine-protein kinase (Homo sapiens) (P04049 whole entry): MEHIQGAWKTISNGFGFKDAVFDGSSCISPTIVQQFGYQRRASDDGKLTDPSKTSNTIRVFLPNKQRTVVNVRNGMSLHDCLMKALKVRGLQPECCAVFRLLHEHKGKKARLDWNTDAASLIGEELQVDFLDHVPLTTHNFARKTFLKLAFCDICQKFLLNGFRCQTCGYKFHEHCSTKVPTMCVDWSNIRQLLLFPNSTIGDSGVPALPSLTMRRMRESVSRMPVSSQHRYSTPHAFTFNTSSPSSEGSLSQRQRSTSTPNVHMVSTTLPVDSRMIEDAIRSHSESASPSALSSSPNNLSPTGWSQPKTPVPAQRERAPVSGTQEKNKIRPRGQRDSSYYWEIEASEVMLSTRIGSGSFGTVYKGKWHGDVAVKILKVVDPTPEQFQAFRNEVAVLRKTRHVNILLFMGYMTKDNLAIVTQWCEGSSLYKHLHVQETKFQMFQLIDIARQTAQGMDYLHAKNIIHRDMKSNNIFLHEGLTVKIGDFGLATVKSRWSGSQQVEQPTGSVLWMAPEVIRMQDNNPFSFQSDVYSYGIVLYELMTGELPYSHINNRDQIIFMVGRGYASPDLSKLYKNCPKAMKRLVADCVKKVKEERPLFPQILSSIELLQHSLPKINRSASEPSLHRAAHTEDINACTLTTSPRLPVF

[13] = molecular target: Tyrosine-protein kinase receptor Tie-1 (Homo sapiens) (UniProt P35590); assay: Selectivity interaction (Ambit KINOMEscan and KiNATiv profiling in Jurkat cells) EUB0000090b TIE1; format: cell-based; settings: at 1 µM
Sequence of Tyrosine-protein kinase receptor Tie-1 (Homo sapiens) (P35590 whole entry): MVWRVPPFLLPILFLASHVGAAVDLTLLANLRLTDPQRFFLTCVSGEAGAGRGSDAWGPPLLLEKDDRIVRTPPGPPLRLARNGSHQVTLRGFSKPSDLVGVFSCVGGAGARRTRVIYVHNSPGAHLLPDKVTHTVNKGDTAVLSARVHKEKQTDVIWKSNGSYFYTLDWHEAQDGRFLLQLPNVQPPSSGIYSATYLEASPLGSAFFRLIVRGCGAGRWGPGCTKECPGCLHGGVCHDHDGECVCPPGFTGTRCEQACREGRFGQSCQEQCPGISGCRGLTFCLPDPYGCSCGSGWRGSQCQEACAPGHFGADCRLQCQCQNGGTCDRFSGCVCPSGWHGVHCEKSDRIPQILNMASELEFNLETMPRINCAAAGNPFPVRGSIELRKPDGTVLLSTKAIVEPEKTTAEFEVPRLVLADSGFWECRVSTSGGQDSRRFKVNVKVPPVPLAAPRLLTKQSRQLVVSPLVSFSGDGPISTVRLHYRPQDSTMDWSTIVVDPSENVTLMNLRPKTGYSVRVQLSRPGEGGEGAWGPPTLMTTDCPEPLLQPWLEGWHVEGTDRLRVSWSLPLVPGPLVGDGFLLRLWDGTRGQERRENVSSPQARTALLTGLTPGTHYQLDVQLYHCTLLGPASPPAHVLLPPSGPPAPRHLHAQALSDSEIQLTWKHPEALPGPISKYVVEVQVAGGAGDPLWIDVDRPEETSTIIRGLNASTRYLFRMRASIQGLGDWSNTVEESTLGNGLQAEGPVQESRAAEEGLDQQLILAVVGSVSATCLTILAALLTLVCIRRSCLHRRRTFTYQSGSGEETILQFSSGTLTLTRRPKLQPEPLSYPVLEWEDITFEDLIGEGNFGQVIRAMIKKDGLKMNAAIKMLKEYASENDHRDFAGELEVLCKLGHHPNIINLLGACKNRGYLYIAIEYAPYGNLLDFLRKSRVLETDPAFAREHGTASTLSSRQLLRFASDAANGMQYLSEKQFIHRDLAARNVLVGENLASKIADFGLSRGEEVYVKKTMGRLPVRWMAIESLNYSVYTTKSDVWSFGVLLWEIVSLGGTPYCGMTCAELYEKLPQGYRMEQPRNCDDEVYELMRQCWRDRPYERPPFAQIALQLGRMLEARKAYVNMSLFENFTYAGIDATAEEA

Sequence of Serine/threonine-protein kinase pim-1 (P11309 whole entry, looked up, canonical isoform): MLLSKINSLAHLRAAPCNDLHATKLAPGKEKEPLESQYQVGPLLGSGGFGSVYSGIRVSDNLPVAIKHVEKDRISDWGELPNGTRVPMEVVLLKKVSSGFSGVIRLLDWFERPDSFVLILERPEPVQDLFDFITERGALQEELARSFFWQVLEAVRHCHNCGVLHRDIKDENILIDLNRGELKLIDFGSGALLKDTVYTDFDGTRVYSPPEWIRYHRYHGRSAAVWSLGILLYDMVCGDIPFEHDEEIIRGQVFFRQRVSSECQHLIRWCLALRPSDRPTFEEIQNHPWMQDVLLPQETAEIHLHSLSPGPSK

`COc1cc(N(C)c2ccnc3ccc(C(F)(F)F)cc23)cc(OC)c1OC` showed a % binding [1] of 69%.
Compound `COCC(=O)NC/C=C/c1ccc2ncnc(Nc3ccc(Oc4ccc(C)nc4)c(C)c3)c2c1` [CP-724714] has a % of control [2] of 38%.
For `Cc1cc([C@@H](C)Nc2ccccc2C(=O)O)c2nc(N3CCOCC3)cc(=O)n2c1` [AZD-6482], the % of control [3] was 98%.
For `CN(C)C(=O)Cn1cc(-c2ccc(-c3cncc4ccccc34)cc2)cn1`, the IC50 [4] was 1.7 nM.
Compound `N#Cc1cccc(-c2c[nH]c3ncnc(N4CCOCC4)c23)c1` has a % of control [5] of 99%.
Compound `CNC(=O)Nc1ccc(-c2nc(N3CC4CCC(C3)O4)c3cnn(C4CCC5(CC4)OCCO5)c3n2)cc1` has a % of control [6] of 88%, a % of control [7] of 100% and a % of control [8] of 80%.
With `O[C@H]1CC[C@H](Nc2ncc3nc(Nc4c(F)cc(F)cc4F)n([C@H]4CCOC4)c3n2)CC1` the % of control [9] was 86%.
In the case of `CC[C@@H]1[C@H](F)C(=O)N[C@@H]1COc1nccc2cc(C(N)=O)c(OC)cc12` [ZIMLOVISERTIB], the % of inhibition [10] is reported as 20.8%.
Work on `CN(C)CCOc1ccc(-c2nc(-c3ccncc3)c(-c3ccc4c(c3)CC/C4=N\O)[nH]2)cc1` yielded a % of control [11] of 88% and a % of control [12] of 0%.
Compound `CN(C)C/C=C/C(=O)Nc1ccc(C(=O)N2CCCC(Nc3ncc(Cl)c(-c4c[nH]c5ccccc45)n3)C2)cc1` (stereo not drawn) has a % of control [13] of 96%.
